The values below come from patent US11523607B2, “Sperm storage media comprising MHY 1485 for enhancing sperm quality and function” (UNIVERSIDADE DO PORTO, priority 2017, dated 2022).

Holding throughout (format): cell-based
Data set [1] has as its system Human spermatozoa. The experiment in a line: Human spermatozoa viability after storage (eosin-nigrosin staining). The conditions noted are these: 2 μg/mL in Sperm Preparation Medium, 37° C. As for the experimental part:
(§1) FIG. 1—Human spermatozoa viability after storage during 120 minutes at 37° C. Spermatozoa were stored in Sperm Preparation Medium (ORIGIO, Måløv, Denmark) not supplemented (Control) or supplemented with an mTOR activator (MHY 1485). Spermatozoa were also incubated with an mTOR inhibitor (Rapamycin; Rap) as a negative control. Viability was assessed by the eosin-nigrosin staining method. Results are presented as mean±standard error of the mean (n=12); Significant results (P<0.05) are indicated as *-vs. Control.
(§2) We evaluated the use of an mTOR activator (MHY 1485) as an additive during sperm storage at 37° C. […] We assessed key sperm quality parameters, namely sperm viability and sperm motility, using standard methods, as described by the guidelines of the World Health Organization, with the supervision of a certified embryologist. We also evaluated the oxidative damages to sperm DNA (DNA fragmentation), proteins (protein carbonylation) and lipids (lipid peroxidation). Sperm DNA fragmentation was assessed using the Halosperm® kit (Halotech DNA SL, Madrid, Spain). Sperm protein carbonylation and lipid peroxidation were evaluated using specific antibodies (ABCAM®, Cambridge, USA) raised against 2,4-dinitrophenol groups and anti-4-hydroxynonenal groups (respectively). […]

Data set [2] concerns Human spermatozoa. The experiment in a line: Human spermatozoa motility after storage. The following applies: 2 μg/mL in Sperm Preparation Medium, 37° C. How it is done:
FIG. 2—Human spermatozoa motility after storage during 120 minutes at 37° C. Spermatozoa were stored in Sperm Preparation Medium (ORIGIO, Måløv, Denmark) not supplemented (Control) or supplemented with an mTOR activator (MHY 1485). Spermatozoa were also incubated with an mTOR inhibitor (Rapamycin; Rap) as a negative control. Results are presented as mean±standard error of the mean (n=12); Significant results (P<0.05) are indicated as *-vs. Control.
as §2

Data set [3] has as its system Human spermatozoa. The experiment in a line: Human spermatozoa metabolism during storage (glucose consumption, lactate production by 1H-NMR). The following applies: 2 μg/mL, 37° C. How it is done:
FIG. 3—Human spermatozoa metabolism during storage for 120 minutes at 37° C. Spermatozoa were stored in Sperm Preparation Medium (ORIGIO, Måløv, Denmark) not supplemented (Control) or supplemented with an mTOR activator (MHY 1485). Spermatozoa were also incubated with an mTOR inhibitor (Rapamycin; Rap) as a negative control. Sperm glucose consumption and lactate production were assessed by 1H nuclear magnetic resonance. Results are presented as mean±standard error of the mean (n=12); Significant results (P<0.05) are indicated as *-vs. Control.
We evaluated the use of an mTOR activator (MHY 1485) as an additive during sperm storage at 37° C. We added the mTOR activator (at a concentration of 2 μg/mL) to a commercial sperm storage medium (Sperm Preparation Medium®; Origio, Malay, Denmark) and stored the spermatozoa suspension (2 million spermatozoa per mL) in microtubes (at 37° C. in a 5% CO2 incubator) for up to 120 minutes, evaluating key parameters of quality and the degree of oxidative damages to those cells at regular intervals (0, 30 and 120 minutes). We assessed key sperm quality parameters, namely sperm viability and sperm motility, using standard methods, as described by the guidelines of the World Health Organization, with the supervision of a certified embryologist. We also evaluated the oxidative damages to sperm DNA (DNA fragmentation), proteins (protein carbonylation) and lipids (lipid peroxidation). Sperm DNA fragmentation was assessed using the Halosperm® kit (Halotech DNA SL, Madrid, Spain). Sperm protein carbonylation and lipid peroxidation were evaluated using specific antibodies (ABCAM®, Cambridge, USA) raised against 2,4-dinitrophenol groups and anti-4-hydroxynonenal groups (respectively). The metabolic alterations of spermatozoa were also evaluated by means of the proton magnetic resonance technique (1H-NMR), using a Varian 600 MHz spectrometer equipped with a 3 mm indirect detection probe with z-gradient (Varian, Palo Alto, USA). At the end of the storage, we evaluated the capacitation potential of the spermatozoa, by incubating the cells in a commercial medium (Lifeglobal®, Guilford, USA) and assessing the 3-nitrotyrosine levels using specific antibodies (ABCAM®, Cambridge, USA). An mTOR inhibitor (Rapamycin at a concentration of 0,1 μg/mL) was used as a negative control.

The test system of data set [4] is Human spermatozoa. Kind of data set: Human spermatozoa capacitation after storage. The following applies: 2 μg/mL in Sperm Preparation Medium, 37° C. How it is done: as §1, with “4—Human” for “1—Human”, “capacitation” for “viability”, “for” for “during”, “Sperm capacitation” for “Viability”, “evaluating sperm phosphotyrosine levels after 180 minutes incubation in Sperm Capacitation Medium (LifeGlobal Europe, Brussels, Belgium).” for “the eosin-nigrosin staining method.”
as §2

The test system of data set [5] is Human spermatozoa. Kind of data set: Human spermatozoa DNA fragmentation after storage (Halosperm kit). The following applies: 2 μg/mL, 37° C., 120 minutes storage. How it is done:
FIG. 5—Human spermatozoa DNA fragmentation after storage for 120 minutes at 37° C. Spermatozoa were stored in Sperm Preparation Medium (ORIGIO, Måløv, Denmark) not supplemented (Control) or supplemented with an mTOR activator (MHY 1485). Spermatozoa were also incubated with an mTOR inhibitor (Rapamycin; Rap) as a negative control. DNA fragmentation was assessed using a Halosperm G2 kit (HALOTECH, Madrid, Spain). Results are presented as mean±standard error of the mean (n=12); Significant results (P<0.05) are indicated as *-vs. Control.
as §2

Data set [6] concerns Human spermatozoa. The experiment in a line: Human spermatozoa protein carbonylation after storage (immunoblot). The following applies: 2 μg/mL, 37° C., 120 minutes storage. As for the experimental part: (§3) FIG. 6—Human spermatozoa oxidative damage to proteins (carbonylation) and lipids (peroxidation) after storage for 120 minutes at 37° C. Spermatozoa were stored in Sperm Preparation Medium (ORIGIO, Måløv, Denmark) not supplemented (Control) or supplemented with an mTOR activator (MHY 1485). Spermatozoa were also incubated with an mTOR inhibitor (Rapamycin; Rap) as a negative control. Protein carbonylation was assessed by immunobloting a specific @DNP antibody (SigmaAldrich, St. Louis, Mo., USA). Lipid peroxidation was assessed by immunobloting a specific @HNE antibody (Merck Millipore, Temecula, USA). […]
as §2

Data set [7] has as its system Human spermatozoa. The experiment in a line: Human spermatozoa lipid peroxidation after storage (immunoblot). The conditions noted are these: 2 μg/mL, 37° C., 120 minutes storage. How it is done:
as §3, §2
(A western blot detects proteins with antibodies after separation by electrophoresis.)

Each structure is given as a SMILES string.

As for `O=[N+]([O-])c1ccc(Nc2nc(N3CCOCC3)nc(N3CCOCC3)n2)cc1` [MHY 1485], in the data set with Human spermatozoa [1] (30 minutes storage, vs time zero), the “percentage of viable sperm” value is “maintained the percentage of viable sperm at similar levels as those of time zero”. Further, the sperm viability entry in the data set on Human spermatozoa [1] (120 minutes storage) is “capable to preserve sperm viability”. Further, the spermatozoa motility entry in the data set on Human spermatozoa [2] (120 minutes storage) is on record as “sustaining a higher motility”. The spermatozoa motility result in the data set on Human spermatozoa [2] (during storage) was “capable to maintain sperm motile”. For the same molecule, in the data set with Human spermatozoa [3] (30 minutes storage), the consumption of hexoses result is “no differences were observed” and the production of lactate entry is listed as “no differences were observed”. In addition, in the data set with Human spermatozoa [3] (120 minutes storage), the glucose consumption result is reported as “maintained” and the lactate production entry was “increased”. Moreover, the capacitation potential result in the data set with Human spermatozoa [4] (120 minutes storage) is “capable to preserve sperm viability and its capacitation potential”. Further, in the data set with Human spermatozoa [4] (during storage), the capacitation potential entry is on record as “sustain its capacitation potential”. The “sperm DNA integrity (DNA fragmentation)” value in the data set on Human spermatozoa [5] was “DNA remaining fully intact”. Further, the “sperm protein oxidative damage (protein carbonylation)” value in the data set with Human spermatozoa [6] was “not increased”. The “lipid oxidative damage (lipid peroxidation)” value in the data set on Human spermatozoa [7] is reported as “not increased”.
